The values below are quoted from earlier work in publication PMC8425678, “1-Oxo-3,4-dihydroisoquinoline-4-carboxamides as novel druglike inhibitors of poly(ADP-ribose) polymerase (PARP) with favourable ADME characteristics” (Journal of Enzyme Inhibition and Medicinal Chemistry, 2021).

One data set addresses T1, PARP2 (Homo sapiens, UniProt Q9UGN5).
T1 construct: purchased BPS Bioscience (San Diego, CA)
The note with it: cited from earlier work; for selectivity index (SI): PARP2 selectivity.

In the next data set the target is T2, PARP1 (Homo sapiens, UniProt P09874).
T2 construct: purchased BPS Bioscience (San Diego, CA)
The note with it: cited from earlier work.

T1 sequence (Q9UGN5 whole entry): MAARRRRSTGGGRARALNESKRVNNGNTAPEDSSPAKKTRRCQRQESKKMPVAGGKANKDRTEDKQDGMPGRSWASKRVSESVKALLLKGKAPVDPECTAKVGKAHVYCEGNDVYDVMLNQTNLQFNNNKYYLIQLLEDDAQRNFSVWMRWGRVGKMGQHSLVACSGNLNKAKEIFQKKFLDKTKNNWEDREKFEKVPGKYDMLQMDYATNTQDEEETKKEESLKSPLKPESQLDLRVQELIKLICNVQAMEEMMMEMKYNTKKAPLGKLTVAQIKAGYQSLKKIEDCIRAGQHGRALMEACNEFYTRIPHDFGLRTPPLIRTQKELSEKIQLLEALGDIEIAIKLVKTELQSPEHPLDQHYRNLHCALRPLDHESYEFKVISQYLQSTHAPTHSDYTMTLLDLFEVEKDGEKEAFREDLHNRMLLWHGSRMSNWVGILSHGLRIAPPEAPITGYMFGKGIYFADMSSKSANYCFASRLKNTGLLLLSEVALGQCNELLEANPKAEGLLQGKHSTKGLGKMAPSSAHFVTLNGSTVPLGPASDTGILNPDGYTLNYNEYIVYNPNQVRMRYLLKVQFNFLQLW
T2 sequence (P09874 whole entry): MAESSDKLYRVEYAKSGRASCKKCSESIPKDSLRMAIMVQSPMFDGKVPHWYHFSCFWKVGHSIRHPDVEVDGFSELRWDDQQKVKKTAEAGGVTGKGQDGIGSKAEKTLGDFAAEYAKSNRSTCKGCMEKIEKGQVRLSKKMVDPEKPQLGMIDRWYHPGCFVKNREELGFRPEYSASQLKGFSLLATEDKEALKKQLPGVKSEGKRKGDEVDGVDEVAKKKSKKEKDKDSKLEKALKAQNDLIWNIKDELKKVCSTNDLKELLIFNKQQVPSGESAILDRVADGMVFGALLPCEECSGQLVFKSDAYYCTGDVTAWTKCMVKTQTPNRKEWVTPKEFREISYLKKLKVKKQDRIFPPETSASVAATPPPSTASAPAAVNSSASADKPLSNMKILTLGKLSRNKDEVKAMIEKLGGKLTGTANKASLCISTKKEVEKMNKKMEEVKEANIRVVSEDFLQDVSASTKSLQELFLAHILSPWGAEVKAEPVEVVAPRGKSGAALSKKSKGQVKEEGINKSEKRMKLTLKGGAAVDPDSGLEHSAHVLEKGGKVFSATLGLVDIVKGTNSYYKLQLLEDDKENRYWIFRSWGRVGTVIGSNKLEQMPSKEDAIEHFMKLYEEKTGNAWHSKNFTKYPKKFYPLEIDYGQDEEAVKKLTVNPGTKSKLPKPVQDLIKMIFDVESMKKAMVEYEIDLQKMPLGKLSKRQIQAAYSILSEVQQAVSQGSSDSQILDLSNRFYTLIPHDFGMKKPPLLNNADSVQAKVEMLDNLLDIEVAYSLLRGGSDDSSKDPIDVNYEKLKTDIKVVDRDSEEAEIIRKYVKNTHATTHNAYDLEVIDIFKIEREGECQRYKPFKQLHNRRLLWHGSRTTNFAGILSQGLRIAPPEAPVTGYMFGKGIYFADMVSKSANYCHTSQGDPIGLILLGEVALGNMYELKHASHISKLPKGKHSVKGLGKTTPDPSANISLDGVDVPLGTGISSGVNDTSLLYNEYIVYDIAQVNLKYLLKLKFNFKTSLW

As usually defined, the IC50 is the concentration at which inhibition is half-maximal. Regarding `O=C(Oc1cccc2c1CCNC2=O)c1ccccc1` [Compound 1a], the “selectivity index (SI)” value at PARP2 was 16.3. The IC50 on PARP2 was 0.8 µM; at PARP1, 13 µM.

For `O=C(Oc1cccc2c(=O)[nH]ccc12)c1ccccc1` [Compound 1b], on PARP2, the “selectivity index (SI)” value is 60.0 and the IC50 was 0.15 µM. Moreover, the IC50 on PARP1 was 9 µM.
